Experimental data published in US20180244611A1, “Modulators of the Cystic Fibrosis Transmembrane Conductance Regulator Protein and Methods of Use” (AbbVie S.à.r.l., priority 2017, published 2018).

Legend:
F508delCFTR [1] = target: T1, F508delCFTR (Homo sapiens, UniProt P13569, DEL508-508); assay: Cell Surface Expression-Horse Radish Peroxidase (CSE-HRP) assay, test compound without co-corrector; type: cell-based; conditions: for Emax: maximum at any tested concentration, normalized to positive control, without co-corrector; for EC50: test compound without co-corrector;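 for Emax: percent of on-plate 2 µM positive control corrector response over DMSO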
T1 construct: expressed in transfected cells; host or cells: CFBE41o- human lung-derived epithelial cells (CFBE41o-F508delCFTR-HRP), doxycycline-inducible
Method: (§1) Cell Surface Expression-Horse Radish Peroxidase (CSE-HRP) Assay
(§2) A cellular assay for measuring the F508delCFTR cell surface expression after correction with test compounds either without or with a co-corrector (2 μM of 3-[(2R,4R)-4-({[1-(2,2-difluoro-1,3-benzodioxol-5-yl)cyclopropyl]carbonyl}amino)-7-methoxy-3,4-dihydro-2H-chromen-2-yl]benzoic acid), was developed in human lung derived epithelial cell line (CFBE41o-) (Veit G et al, (2012) Mol Biol Cell. 23(21): 4188-4202). The development was achieved by expressing the F508delCFTR mutation along with a horseradish peroxidase (HRP) in the fourth exofacial loop, and then measuring the HRP activity using luminescence readout from these cells, CFBE41o-F508delCFTR-HRP, that were incubated overnight with the test corrector compounds, either without or with the co-corrector. For this primary assay, the CFBE41o-F508delCFTR-HRP cells were plated in 384-well plates (Greiner Bio-one; Cat 781080) at 4,000 cells/well along with 0.5 μg/mL doxycycline to induce the F508delCFTR-HRP expression and further incubated at 37° C., 5% CO2 for 72 hours. The test compounds were then added either without or with a co-corrector at the required concentrations and further incubated for 18-24 hours at 33° C. The highest concentration tested was 20 μM with an 8-point concentration response curve using a 3-fold dilution in both the test compound without or with the co-corrector. Three replicate plates were run to determine one EC50. All plates contained negative controls (dimethyl sulfoxide, DMSO) and positive control (2 μM of 3-[(2R,4R)-4-({[1-(2,2-difluoro-1,3-benzodioxol-5-yl)cyclopropyl]carbonyl}amino)-7-methoxy-3,4-dihydro-2H-chromen-2-yl]benzoic acid) as well as on-plate concentration response of the positive control. Post incubation, the plates were washed 5× times with Dulbecco's phosphate buffered saline (DPBS), followed by the addition of the HRP substrate, luminol (50 μL), and measuring the HRP activity using luminescence readout on EnVision® Multilabel Plate Reader (Perkin Elmer; product number 2104-0010). The raw counts from the experiment were analyzed using Accelrys® Assay Explorer v3.3.
(§3) Z′ greater than 0.5 was used as passing quality control criteria for the plates.
(§4) 1−[3*SDPositive Control+3*SDNegative Control/Absolute (MeanPositive Control−MeanNegative Control)]
(§5) wherein “SD” is standard deviation.
(§6) The % activity measured at each of the 8 test concentrations of the test compound added either without or with a co-corrector (2 μM of 3-[(2R,4R)-4-({[1-(2,2-difluoro-1,3-benzodioxol-5-yl)cyclopropyl]carbonyl}amino)-7-methoxy-3,4-dihydro-2H-chromen-2-yl]benzoic acid) was normalized to the on-plate positive control using the following formulae:
% activity (Test compound without co-corrector)=[(test compound without co-corrector response−DMSO response)/(positive control response−DMSO response)]*100%
(§7) The maximum % activity achieved for the test compound either without or with a co-corrector at any tested concentration is presented in Table 1 along with the respective EC50's calculated using the following general sigmoidal curve with variable Hill slope equation (described as Model 42 in the Accelrys® Assay Explorer v3.3 software):
(§8) General sigmoidal curve with concentration, response, top, bottom, EC50 and Hill slope. This model describes a sigmoidal curve with an adjustable baseline, a. The equation can be used to fit curves where response is either increasing or decreasing with respect to the independent variable, “x”.
“x” is a concentration of drug under test. “y” is the response. “a” is the maximum response, and “d” is the minimum response “c” is the inflection point (EC50) for the curve. That is, “y” is halfway between the lower and upper asymptotes when x=c. “b” is the slope-factor or Hill coefficient. The sign of b is positive when the response increases with increasing dose and is negative when the response decreases with increasing dose (inhibition). The data is presented with the qualifiers shown below: […]

F508delCFTR [2] = target: T1, F508delCFTR; assay: Cell Surface Expression-Horse Radish Peroxidase (CSE-HRP) assay, test compound with co-corrector; type: cell-based; conditions: with 2 μM co-corrector; for Maximum % activity (with co-corrector): maximum at any tested concentration, normalized to positive control;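 for Maximum % activity (with co-corrector): percent of 2 µM positive control corrector over DMSO; co-corrector is that same compound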
Method: as §1, §2, §3, §4, §5, §6
activity (Test compound with co-corrector)=[(test compound with co-corrector response−DMSO response)/(positive control response−DMSO response)]*100
as §7, §8
“x” is a concentration of drug under test. “y” is the response. “a” is the maximum response, and “d” is the minimum response “c” is the inflection point (EC50) for the curve. That is, “y” is halfway between the lower and upper asymptotes when x=c. “b” is the slope-factor or Hill coefficient. The sign of b is positive when the response increases with increasing dose and is negative when the response decreases with increasing dose (inhibition).

T1 sequence (P13569 with tags, fused parts or gaps DEL508-508): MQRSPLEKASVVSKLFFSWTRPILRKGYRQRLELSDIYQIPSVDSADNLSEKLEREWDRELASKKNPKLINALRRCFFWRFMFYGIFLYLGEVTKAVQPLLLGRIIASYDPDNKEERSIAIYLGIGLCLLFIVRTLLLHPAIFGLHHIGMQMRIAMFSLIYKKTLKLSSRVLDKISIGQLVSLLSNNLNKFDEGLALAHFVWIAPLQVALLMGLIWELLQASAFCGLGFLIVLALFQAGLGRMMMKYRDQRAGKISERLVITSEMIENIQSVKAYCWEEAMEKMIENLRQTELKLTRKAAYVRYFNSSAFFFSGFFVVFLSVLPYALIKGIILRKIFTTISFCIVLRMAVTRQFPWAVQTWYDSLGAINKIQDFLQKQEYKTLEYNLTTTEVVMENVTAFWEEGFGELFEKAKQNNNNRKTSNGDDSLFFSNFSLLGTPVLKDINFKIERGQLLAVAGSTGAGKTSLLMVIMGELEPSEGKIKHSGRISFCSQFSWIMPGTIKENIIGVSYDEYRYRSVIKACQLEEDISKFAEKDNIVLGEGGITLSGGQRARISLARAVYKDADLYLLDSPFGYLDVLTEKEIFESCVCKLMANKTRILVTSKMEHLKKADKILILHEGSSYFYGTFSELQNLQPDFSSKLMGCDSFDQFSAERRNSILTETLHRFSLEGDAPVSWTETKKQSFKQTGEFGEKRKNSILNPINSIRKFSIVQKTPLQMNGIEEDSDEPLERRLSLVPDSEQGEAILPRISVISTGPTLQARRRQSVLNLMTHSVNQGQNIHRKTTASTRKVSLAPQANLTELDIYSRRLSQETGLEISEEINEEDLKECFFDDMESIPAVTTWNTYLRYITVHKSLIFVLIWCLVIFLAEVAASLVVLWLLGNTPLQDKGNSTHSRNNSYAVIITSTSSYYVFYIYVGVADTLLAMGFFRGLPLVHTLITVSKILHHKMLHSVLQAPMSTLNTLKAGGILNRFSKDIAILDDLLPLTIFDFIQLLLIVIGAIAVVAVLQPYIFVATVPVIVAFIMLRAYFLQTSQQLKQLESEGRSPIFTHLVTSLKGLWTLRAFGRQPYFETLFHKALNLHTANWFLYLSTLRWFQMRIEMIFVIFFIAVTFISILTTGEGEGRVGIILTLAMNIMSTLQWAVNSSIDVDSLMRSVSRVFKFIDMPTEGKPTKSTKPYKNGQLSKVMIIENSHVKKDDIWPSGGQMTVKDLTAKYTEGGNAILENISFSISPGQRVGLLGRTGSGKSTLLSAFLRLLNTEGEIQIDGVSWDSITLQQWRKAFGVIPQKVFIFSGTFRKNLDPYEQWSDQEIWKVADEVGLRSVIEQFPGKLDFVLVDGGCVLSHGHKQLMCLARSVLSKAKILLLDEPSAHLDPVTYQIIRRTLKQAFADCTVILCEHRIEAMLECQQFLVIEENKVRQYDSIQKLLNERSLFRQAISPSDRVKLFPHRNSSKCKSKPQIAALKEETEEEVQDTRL

Structure (SMILES)	Emax (F508delCFTR [1]) [%]	EC50 (F508delCFTR [1]) [µM]	Maximum % activity (with co-corrector) (F508delCFTR [2])	EC50 (F508delCFTR [2]) [µM]
CCC1(C(=O)NS(=O)(=O)c2cccc3cccc(O)c23)CCc2c(Cl)cccc21 (stereo not shown) [Example I-31, 4-chloro-1-ethyl-N-(8-hydroxynaphthalene-1-sulfonyl)-2,3-dihydro-1H-indene-1-carboxamide]	50 to 150	< 3	+++ (≥350)	< 3
CCOc1ccc(Br)c2c1CCCC2C(=O)NS(=O)(=O)c1cccc2ccccc12 (stereo not shown) [Example I-32, 8-bromo-5-ethoxy-N-(naphthalene-1-sulfonyl)-1,2,3,4-tetrahydronaphthalene-1-carboxamide]	≥ 150	< 3	+++ (≥350)	< 3
COc1ccc(C2CCC2)c2c1CCCC2C(=O)NS(=O)(=O)c1cccc2ccccc12 (stereo not shown) [Example I-33, 8-cyclobutyl-5-methoxy-N-(naphthalene-1-sulfonyl)-1,2,3,4-tetrahydronaphthalene-1-carboxamide]	≥ 150	< 3	+++ (≥350)	< 3
CCC1(C(=O)NS(=O)(=O)c2cccc3ccccc23)CCCc2cccc(Cl)c21 (stereo not shown) [Example I-34, 8-chloro-1-ethyl-N-(naphthalene-1-sulfonyl)-1,2,3,4-tetrahydronaphthalene-1-carboxamide]	≥ 150	< 3	+++ (≥350)	< 3
O=C(NS(=O)(=O)c1cccc2ccccc12)C1(Cc2cccc(C(F)(F)F)n2)CCc2c(Cl)cccc21 (stereo not shown) [Example I-35, 4-chloro-N-(naphthalene-1-sulfonyl)-1-{[6-(trifluoromethyl)pyridin-2-yl]methyl}-2,3-dihydro-1H-indene-1-carboxamide]	≥ 150	< 3	+++ (≥350)	< 3
O=C(NS(=O)(=O)c1cccc2ccccc12)C1(Cc2ccc(Cl)nc2)CCc2c(Cl)cccc21 (stereo not shown) [Example I-36, 4-chloro-1-[(6-chloropyridin-3-yl)methyl]-N-(naphthalene-1-sulfonyl)-2,3-dihydro-1H-indene-1-carboxamide]	50 to 150	3 to 10	+++ (≥350)	< 3
COc1cccc(CC2(C(=O)NS(=O)(=O)c3cccc4ccccc34)CCc3c(Cl)cccc32)n1 (stereo not shown) [Example I-37, 4-chloro-1-[(6-methoxypyridin-2-yl)methyl]-N-(naphthalene-1-sulfonyl)-2,3-dihydro-1H-indene-1-carboxamide]	50 to 150	3 to 10	+++ (≥350)	3 to 10
CC1(C(=O)NS(=O)(=O)c2cccc3ccccc23)CCc2c(Cl)cccc21 (stereo not shown) [Example I-38, 4-chloro-1-methyl-N-(naphthalene-1-sulfonyl)-2,3-dihydro-1H-indene-1-carboxamide]	≥ 150	3 to 10	+++ (≥350)	< 3
CCC1(C(=O)NS(=O)(=O)c2cccc3c(Cl)cccc23)CCc2c(Cl)cccc21 (stereo not shown) [Example I-39, 4-chloro-N-(5-chloronaphthalene-1-sulfonyl)-1-ethyl-2,3-dihydro-1H-indene-1-carboxamide]	50 to 150	< 3	+++ (≥350)	< 3
CC(C)Oc1ccc(Br)c2c1CCCC2C(=O)NS(=O)(=O)c1cccc2ccccc12 (stereo not shown) [Example I-40, 8-bromo-N-(naphthalene-1-sulfonyl)-5-[(propan-2-yl)oxy]-1,2,3,4-tetrahydronaphthalene-1-carboxamide]	≥ 150	< 3	+++ (≥350)	< 3
COc1ccc(Br)c2c1C(C(=O)NS(=O)(=O)c1cccc3ccccc13)CCC2 (stereo not shown) [Example I-41, 5-bromo-8-methoxy-N-(naphthalene-1-sulfonyl)-1,2,3,4-tetrahydronaphthalene-1-carboxamide]	≥ 150	< 3	+++ (≥350)	< 3
CCC1(C(=O)NS(=O)(=O)c2cccc3ncccc23)CCc2c(Cl)cccc21 (stereo not shown) [Example I-42, 4-chloro-1-ethyl-N-(quinoline-5-sulfonyl)-2,3-dihydro-1H-indene-1-carboxamide]	≥ 150	< 3	+++ (≥350)	< 3
CCC1(C(=O)NS(=O)(=O)c2cccc3sccc23)CCc2c(Cl)cccc21 (stereo not shown) [Example I-43, N-(1-benzothiophene-4-sulfonyl)-4-chloro-1-ethyl-2,3-dihydro-1H-indene-1-carboxamide]	50 to 150	< 3	+++ (≥350)	< 3
COc1ccc(Br)c2c1C(C(=O)NS(=O)(=O)c1cccc3ncccc13)CC2 (stereo not shown) [Example I-44, 4-bromo-7-methoxy-N-(quinoline-5-sulfonyl)-2,3-dihydro-1H-indene-1-carboxamide]	≥ 150	< 3	+++ (≥350)	< 3
COCCOc1ccc(Br)c2c1CCCC2C(=O)NS(=O)(=O)c1cccc2ccccc12 (stereo not shown) [Example I-45, 8-bromo-5-(2-methoxyethoxy)-N-(naphthalene-1-sulfonyl)-1,2,3,4-tetrahydronaphthalene-1-carboxamide]	≥ 150	< 3	+++ (≥350)	< 3
COc1ccc(Br)c2c1[C@@H](C(=O)NS(=O)(=O)c1cccc3ncccc13)CC2 [Example I-46, (1S)-4-bromo-7-methoxy-N-(quinoline-5-sulfonyl)-2,3-dihydro-1H-indene-1-carboxamide]	≥ 150	3 to 10	+++ (≥350)	< 3
COc1ccc(Br)c2c1[C@H](C(=O)NS(=O)(=O)c1cccc3ncccc13)CC2 [Example I-47, (1R)-4-bromo-7-methoxy-N-(quinoline-5-sulfonyl)-2,3-dihydro-1H-indene-1-carboxamide]	≥ 150	< 3	+++ (≥350)	< 3
COc1ccc(Br)c2c1CCC[C@@H]2C(=O)NS(=O)(=O)c1cccc2ccccc12 [Example I-48, (1S)-8-bromo-5-methoxy-N-(naphthalene-1-sulfonyl)-1,2,3,4-tetrahydronaphthalene-1-carboxamide]	≥ 150	3 to 10	+++ (≥350)	< 3
COc1ccc(Br)c2c1CCC[C@H]2C(=O)NS(=O)(=O)c1cccc2ccccc12 [Example I-49, (1R)-8-bromo-5-methoxy-N-(naphthalene-1-sulfonyl)-1,2,3,4-tetrahydronaphthalene-1-carboxamide]	≥ 150	< 3	+++ (≥350)	< 3
